The results in this text go back to patent publication US7737127B2, “2-propynyl adenosine analogs having A2A agonist activity and compositions thereof” (University of Virginia Patent Foundation, priority 2001, dated 2010).

One assay has as its system human neutrophils. In words: Human neutrophil oxidative activity, luminol-enhanced chemiluminescence. Type of assay: cell-based. The following applies: for PMN oxid + roli (-log EC50): human neutrophil experiment w/Rolipram; for PMN oxid (-log EC50) / EC50: human neutrophil experiment w/o Rolipram; for EC50: Homo sapiens, Neutrophil, read-out: PMN oxid (-log EC50) (converted). How it is done: Chemiluminescence Methods: Lumninol enhanced chemiluminescence, a measure of neutrophil oxidative activity, is dependent upon both superoxide production and mobilization of the granule enzyme myeloperoxidase. The light is emitted from unstable high-energy oxygen species such as hypochlorous acid and singlet oxygen generated by activated neutrophils.
The plate was incubated 5 min (37 C) and then fMLP (50 l in HA; final concentration […]) was added to all wells.
Data are presented as peak chemiluminescence as percent of activity in the absence of an adenosine agonist. The EC50 was determined using PRISM software. All compounds were tested with PMNs from three separate donors.
Lummol-enhanced chemiluminescence, a measure of neutrophil oxidative activity, is dependent upon both superoxide production and mobilization of the lysosomal granule enzyme myeloperoxidase. The light is emitted from unstable high-energy oxygen species generated by activated neutrophils. Purified neutrophils (5-10×10^5/ml) were incubated in Hanks balanced salt solution containing 0.1% human serum albumin (1 ml) with the tested A2A agonist with or without rolipram and with or without tumor necrosis factor-alpha (1 U/ml) for 30 minutes at 37° C. in a shaking water bath. […] Chemiluminescence is reported as relative peak light emitted (=height of the curve) compared to samples with tumor necrosis factor-alpha and without agonist or rolipram.

For a further assay, the target named is T1, human A1 AR (Homo sapiens, UniProt P30542).
T1 sequence (P30542 1-326): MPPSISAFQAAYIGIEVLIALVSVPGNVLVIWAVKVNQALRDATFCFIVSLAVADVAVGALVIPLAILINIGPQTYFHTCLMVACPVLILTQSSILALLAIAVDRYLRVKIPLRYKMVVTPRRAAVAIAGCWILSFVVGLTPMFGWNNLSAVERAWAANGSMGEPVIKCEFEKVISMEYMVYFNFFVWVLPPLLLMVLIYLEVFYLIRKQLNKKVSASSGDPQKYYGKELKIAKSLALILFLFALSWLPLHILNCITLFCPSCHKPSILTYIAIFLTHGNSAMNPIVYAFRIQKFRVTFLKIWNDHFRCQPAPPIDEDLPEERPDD
In words: Radioligand competition binding (125I-ABA) to human A1 AR in CHO K1 cell membranes. The following applies: for Ki: A1 ± SEM, Ki from competition binding, 125I-ABA, CHO K1 cell membranes; for A1/A2A: selectivity ratio A1 over A2A.

A further assay deals with T2, A3 AR (Homo sapiens, UniProt P0DMS8).
T2 sequence (P0DMS8 1-318): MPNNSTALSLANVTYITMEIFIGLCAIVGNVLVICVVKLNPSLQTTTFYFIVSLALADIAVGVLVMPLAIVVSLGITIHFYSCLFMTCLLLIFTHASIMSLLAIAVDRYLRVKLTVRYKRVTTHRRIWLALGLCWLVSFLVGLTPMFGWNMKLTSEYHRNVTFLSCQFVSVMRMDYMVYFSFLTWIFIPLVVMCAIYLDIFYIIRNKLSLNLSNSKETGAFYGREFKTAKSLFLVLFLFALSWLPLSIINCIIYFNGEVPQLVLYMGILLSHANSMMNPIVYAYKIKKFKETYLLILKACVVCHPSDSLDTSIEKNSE
The assay is described as follows: Radioligand competition binding (125I-ABA) to human A3 AR in HEK 293 cell membranes. The following applies: for Ki: A3 ± SEM, Ki from competition binding, 125I-ABA, HEK 293 cell membranes; for A3/A2A: selectivity ratio A3 over A2A. (In general: In a radioligand displacement assay an active substance lowers the binding of a labelled ligand.)

Assay [1] deals with recombinant human A2A receptors (Homo sapiens, UniProt P29274). In words: Radioligand competition binding to recombinant human A2A receptors in Sf9 cell membranes. The settings on record: A2A ± SEM, Ki from competition binding, Sf9 cell membranes.
recombinant human A2A receptors, sequence (P29274 whole entry): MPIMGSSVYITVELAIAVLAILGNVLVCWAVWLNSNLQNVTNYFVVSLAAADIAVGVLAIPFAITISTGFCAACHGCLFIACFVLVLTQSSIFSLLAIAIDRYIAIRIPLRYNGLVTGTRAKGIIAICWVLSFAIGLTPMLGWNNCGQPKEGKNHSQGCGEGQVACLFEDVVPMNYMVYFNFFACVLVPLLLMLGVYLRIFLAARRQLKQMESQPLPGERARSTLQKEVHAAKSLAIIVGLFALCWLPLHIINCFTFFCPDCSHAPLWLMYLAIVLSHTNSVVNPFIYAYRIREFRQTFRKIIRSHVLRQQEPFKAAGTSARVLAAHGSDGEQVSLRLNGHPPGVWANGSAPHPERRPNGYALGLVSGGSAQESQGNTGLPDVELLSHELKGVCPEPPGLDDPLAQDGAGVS

Protocol for human A1 AR: Sf9 cells were cultured in Grace's medium supplemented with 10% fetal bovine serum, 2.5 μg/ml amphotericin B and 50 μg/ml gentamycin in an atmosphere of 50% N2/50% O2. […] Infected cells were harvested 3 days post-infection and washed twice in insect PBS (PBS pH 6.3). Cells were then resuspended in lysis buffer (20 mM HEPES pH 7.5, 150 mM NaCl, 3 mM MgCl2, 1 mM β-mercaptoethanol (BME), 5 μg/mL leupeptin, 5 μg/mL pepstatin A, 1 μg/mL aprotinin, and 0.1 mM PMSF) and snap frozen for storage at −80° C. Cells were thawed on ice, brought to 30 mL total volume in lysis buffer, and burst by N2 cavitation (600 psi for 20 minutes). A low-speed centrifugation was performed to remove any unlysed cells (1000×g for 10 minutes), followed by a high-speed centrifugation (17,000×g for 30 minutes). The pellet from the final centrifugation was homogenized in buffer containing 20 mM HEPES pH 8, 100 mM NaCl, 1% glycerol, 2 μg/mL leupeptin, 2 μg/mL pepstatin A, 2 μg/mL Aprotinin, 0.1 mM PMSF, and 10 μM GDP using a small glass homogenizer followed by passage through a 26 gauge needle. Membranes were aliquoted, snap frozen in liquid N2, and stored at −80° C.
Binding experiments were performed in triplicate with 5 μg (A2A) or 25 μg (A1 and A3) membrane protein in a total volume of 0.1 mL HE buffer (20 mM HEPES and 1 mM EDTA) with 1 U/mL adenosine deaminase and 5 mM MgCl2 with or without 50 μM GTPγS. Membranes were incubated with radioligands at room temperature for three hours (for agonists) or two hours (for antagonists) in Millipore Multiscreene® 96-well GF/C filter plates and assays were terminated by rapid filtration on a cell harvester (Brandel, Gaithersburg, Md.) followed by 4×150 μl washes over 30 seconds with ice cold 10 mM Tris-HCl, pH 7.4, 10 mM MgCl2.

As usually defined, the Ki is the dissociation constant of the complex between target and ligand, obtained from inhibition or displacement. Turning to `CCNC(=O)[C@H]1O[C@@H](n2cnc3c(N)nc(C#CC4(O)CCCCC4C)nc32)C(O)C1O` (single isomer, unassigned) [JR-3177B, 5-[6-Amino-2-(1-hydroxy-2-methyl-cyclohexylethynyl)-purin-9-yl]-3,4-dihydroxytetrahydrofuran-2-carboxylic acid ethylamide], in the assay with human neutrophils, the “PMN oxid + roli (-log EC50)” value turned out to be 9.45 and the “PMN oxid (-log EC50)” value is on record as 8.5. Besides, at human A1 AR, the inhibition constant Ki is 15.5 ± 0.7 nM and the A1/A2A was 23.1. Moreover, on A3 AR, the inhibitory constant (Ki) amounted to 7.5 ± 4.5 nM and the A3/A2A was 11.2. Besides, the Ki in assay [1] was 0.7 ± 0.07 nM.
In the case of `CCNC(=O)[C@H]1O[C@@H](n2cnc3c(N)nc(C#CC4(O)CCCCC4C)nc32)C(O)C1O` (single isomer, unassigned) [JR-3181A, 5-[6-Amino-2-(1-hydroxy-2-methyl-cyclohexylethynyl)-purin-9-yl]-3,4-dihydroxytetrahydrofuran-2-carboxylic acid ethylamide], in the assay with human neutrophils, the “PMN oxid + roli (-log EC50)” value is on record as 8.77 and the “PMN oxid (-log EC50)” value was determined as 7.73. For the same compound, on human A1 AR, the Ki was determined as 44.9 ± 17.2 nM and the A1/A2A came to 38.1. In addition, at A3 AR, the inhibition constant Ki worked out at 69.7 ± 43 nM and the A3/A2A is 59.1. For the same compound, the Ki in assay [1] was 1.2 ± 0.15 nM.
Consider `CCNC(=O)[C@H]1O[C@@H](n2cnc3c(N)nc(C#CC4(O)CCCCC4C)nc32)C(O)C1O` (single isomer, unassigned) [JR-3181B, 5-[6-Amino-2-(1-hydroxy-2-methyl-cyclohexylethynyl)-purin-9-yl]-3,4-dihydroxytetrahydrofuran-2-carboxylic acid ethylamide], for which, in the assay with human neutrophils, the “PMN oxid + roli (-log EC50)” value is 9.67 and the “PMN oxid (-log EC50)” value came out at 8.57. In addition, on human A1 AR, the inhibition constant Ki worked out at 24.2 ± 6.2 nM and the A1/A2A is recorded as 36.1. Also, at A3 AR, affinity was put at a Ki of 38.9 ± 4.8 nM and the A3/A2A amounted to 58.1. In addition, the Ki in assay [1] stood at 0.7 ± 0.07 nM.
For `CCNC(=O)[C@H]1O[C@@H](n2cnc3c(N)nc(C#CC4(O)CCCCNC4=O)nc32)C(O)C1O` (single isomer, unassigned) [JR-3243A, 5-[6-Amino-2-(3-hydroxy-2-oxo-azepan-3-ylethynyl)purin-9-yl]-3,4-dihydroxytetrahydrofuran-2-carboxylic acid ethylamide], in the assay with human neutrophils, the “PMN oxid + roli (-log EC50)” value stood at 7.65 and the “PMN oxid (-log EC50)” value was found to be 6.42. For the same compound, on human A1 AR, the inhibitory constant (Ki) turned out to be 29.6 ± 4.8 nM and the A1/A2A is reported as 2.5. At A3 AR, the inhibition constant (Ki) came to 31.1 ± 7.2 nM and the A3/A2A is given as 2.6. Also, the inhibitory constant (Ki) in assay [1] was 11.9 ± 1.3 nM.
With `CCNC(=O)[C@H]1O[C@@H](n2cnc3c(N)nc(C#CC4(O)CCCCNC4=O)nc32)C(O)C1O` (single isomer, unassigned) [JR-3243B, 5-[6-Amino-2-(3-hydroxy-2-oxo-azepan-3-ylethynyl)purin-9-yl]-3,4-dihydroxytetrahydrofuran-2-carboxylic acid ethylamide], in the assay with human neutrophils, the “PMN oxid + roli (-log EC50)” value was determined as 8.91 and the “PMN oxid (-log EC50)” value was 7.81. Further, at human A1 AR, the inhibition constant (Ki) came to 12 ± 5 nM and the A1/A2A was determined as 5.3. At A3 AR, affinity was put at a Ki of 3.34 ± 0.48 nM and the A3/A2A is listed as 1.5. Moreover, in assay [1], the Ki turned out to be 2.25 ± 0.35 nM.
A word on the EC50: it is the midpoint of the concentration-response curve. Regarding `CCNC(=O)[C@H]1O[C@@H](n2cnc3c(N)nc(C#CCC4CCC(C(=O)O)CC4)nc32)C(O)C1O` (stereo in doubt) [ATL-146a, 4-{3-[6-Amino-9-(5-ethylcarbamoyl-3,4-dihydroxytetrahydrofuran-2-yl)-9H-purin-2-yl]-prop-2-ynyl}-cyclohexanecarboxylic acid], in the assay with human neutrophils, the EC50 was 912 nM and the “PMN oxid + roli (-log EC50)” value worked out at 7.72. At human A1 AR, the affinity, expressed as Ki, was 189 ± 19 nM and the A1/A2A was found to be 6.4. For the same compound, on A3 AR, the affinity corresponds to a Ki of 29 ± 10 nM and the A3/A2A worked out at 1.0. The inhibition constant (Ki) in assay [1] was 29.6 ± 1.2 nM.
For `CCNC(=O)[C@H]1O[C@@H](n2cnc3c(N)nc(C#CCC4CCC(COC(C)=O)CC4)nc32)C(O)C1O` (stereo in doubt) [ATL-193, Acetic acid 4-{3-[6-amino-9-(5-ethylcarbamoyl-3,4-dihydroxytetrahydrofuran-2-yl)-9H-purin-2-yl]-prop-2-ynyl}-cyclohexylmethyl ester], in the assay on human neutrophils, the EC50 was 3.09 nM and the “PMN oxid + roli (-log EC50)” value turned out to be 9.46. At human A1 AR, the affinity, expressed as Ki, was 71 ± 14 nM and the A1/A2A is given as 64.5. At A3 AR, the affinity corresponds to a Ki of 231 ± 91 nM and the A3/A2A is listed as 210.0. In assay [1], the Ki stood at 1.1 ± 0.2 nM.
With `CCNC(=O)[C@H]1O[C@@H](n2cnc3c(N)nc(C#CCC4CCC(CO)CC4)nc32)C(O)C1O` (stereo in doubt) [ATL-2037, 5-{6-Amino-2-[3-(4-hydroxymethyl-cyclohexyl)-prop-1-ynyl]-purin-9-yl}-3,4-dihydroxytetrahydrofuran-2-carboxylic acid ethylamide], in the assay with human neutrophils, the concentration giving a half-maximal response (EC50) was 32.4 nM and the “PMN oxid + roli (-log EC50)” value amounted to 8.7. At human A1 AR, the affinity corresponds to a Ki of 19 ± 1 nM and the A1/A2A amounted to 12.6. In addition, at A3 AR, affinity was put at a Ki of 76 ± 6 nM and the A3/A2A was found to be 50.3. Further, in assay [1], the inhibitory constant (Ki) is 1.5 ± 0.01 nM.
Consider `CCNC(=O)[C@H]1O[C@@H](n2cnc3c(N)nc(C#CCC4CCC(C(=O)OCCNC(=O)OC(C)(C)C)CC4)nc32)C(O)C1O` (stereo in doubt) [JR-3021, 4-{3-[6-Amino-9-(5-ethylcarbamoyl-3,4-dihydroxy-tetrahydrofuran-2-yl)-9H-purin-2-yl]-prop-2-ynyl}-cyclohexanecarboxylic acid 2-tert-butoxycarbonylamino-ethyl ester], for which, in the assay with human neutrophils, the EC50 was 26.3 nM and the “PMN oxid + roli (-log EC50)” value is given as 8.58. Also, on human A1 AR, the Ki came out at 107 ± 10 nM and the A1/A2A worked out at 66.9. For the same compound, on A3 AR, the affinity, expressed as Ki, was 41 ± 1 nM and the A3/A2A is 25.6. Also, the inhibitory constant (Ki) in assay [1] is 1.6 ± 0.5 nM.
As for `CCNC(=O)[C@H]1O[C@@H](n2cnc3c(N)nc(C#CCC4CCC(CN(C)C)CC4)nc32)C(O)C1O` (stereo in doubt) [JR-3023, 5-{6-Amino-2-[3-(4-dimethylaminomethyl-cyclohexyl)-prop-1-ynyl]-purin-9-yl}-3,4-dihydroxytetrahydrofuran-2-carboxylic acid ethylamide], in the assay with human neutrophils, the EC50 is 42.7 nM and the “PMN oxid + roli (-log EC50)” value was found to be 8.66. On human A1 AR, the Ki came to 14 ± 0.8 nM and the A1/A2A was 3.7. For the same compound, on A3 AR, the affinity, expressed as Ki, was 61 ± 6 nM and the A3/A2A stood at 16.3. The inhibitory constant (Ki) in assay [1] turned out to be 3.8 ± 2 nM.
Consider `CCNC(=O)[C@H]1O[C@@H](n2cnc3c(N)nc(C#CCC4CCC(C(=O)OCCN)CC4)nc32)C(O)C1O` (stereo in doubt) [JR-3033, 4-{3-[6-Amino-9-(5-ethylcarbamoyl-3,4-dihydroxy-tetrahydrofuran-2-yl)-9H-purin-2-yl]-prop-2-ynyl}-cyclohexanecarboxylic acid 2-amino-ethyl ester], for which, in the assay with human neutrophils, the concentration for a half-maximal effect (EC50) is 49 nM and the “PMN oxid + roli (-log EC50)” value was determined as 8.67. At human A1 AR, the affinity, expressed as Ki, was 15.1 ± 3.9 nM and the A1/A2A is 9.7. Also, at A3 AR, the affinity, expressed as Ki, was 26 ± 14 nM and the A3/A2A is 16.7. In assay [1], the inhibition constant Ki was 1.6 ± 0.02 nM.
As for `CCNC(=O)C1CCC(CC#Cc2nc(N)c3ncn([C@@H]4O[C@H](C(=O)NCC)C(O)C4O)c3n2)CC1` (stereo in doubt) [JR-3037, 5-{6-Amino-2-[3-(4-ethylcarbamoyl-cyclohexyl)-prop-1-ynyl]-purin-9-yl}-3,4-dihydroxytetrahydrofuran-2-carboxylic acid ethylamide], in the assay on human neutrophils, the 50% effective concentration (EC50) is 45.7 nM and the “PMN oxid + roli (-log EC50)” value was found to be 8.68. In addition, at human A1 AR, affinity was put at a Ki of 113 ± 11 nM and the A1/A2A was determined as 27.6. Also, on A3 AR, the Ki was found to be 93 ± 21 nM and the A3/A2A was 22.7. Moreover, in assay [1], the Ki stood at 4.1 ± 0.9 nM.
